Source: patent US20160058752A1, “TOPICAL […]-AFFECTIVE (TPNA) THERAPY FOR N[…]” (AFGIN PHARMA, LLC, priority 2014, published 2016)

Experiments:
free nerve endings = assay: Onset of clinical effect of TPNA therapy; type: in vivo, human; conditions: topical
[1] = test system: dopamine, norepinephrine, and serotonin receptors; conditions: topical
[2] = test system: local peripheral and generalized pain; assay: Nuchal (BONATH) application of compounded opioids for pain relief in patients; conditions: patients tapering off oral narcotics, nuchal delivery as only pain therapy
Source text: Previously described has is the “nuchal” (back of the neck at the hairline, or “BONATH”) application of triptans (Migraderm using sumatriptan) for migraine headache, tizanidine (Tizoderm) for cervical spasm and tension headache; and, apomorphine for the Parkinson's disease symptoms of tremor, rigidity, speech difficulties, and other “non-motor” symptoms.

[3] = after topical application in cold cream; cited from earlier work

SMILES | effect on symptoms of neuropathic pain and other symptoms of nerve dysfunction [1] | narcotic withdrawal symptoms [2] | other results
CN1CCc2cccc3c2[C@H]1Cc1ccc(O)c(O)c1-3 [apomorphine] | treat symptoms of neuropathic pain | – | onset of clinical effect (free nerve endings): 10 to 15 min
NCCc1ccc(O)c(O)c1 [dopamine] | treat symptoms of neuropathic pain | – | –
CN1CC[C@]23c4c5ccc(O)c4O[C@H]2[C@@H](O)C=C[C@H]3[C@H]1C5.O=S(=O)(O)O [morphine sulfate] | – | no significant narcotic withdrawal symptoms | –
CN1CC[C@]23c4c5ccc(O)c4O[C@H]2[C@@H](O)C=C[C@H]3[C@H]1C5 [morphine] | – | – | morphine levels in blood or urine [3]: not detected
COc1cccc(C2(O)CCCCC2CN(C)C)c1 (stereo not drawn) [tramadol] | – | no significant narcotic withdrawal symptoms | –
